The source of these data is patent US20230331781A1, “PAR4 DERIVED PEPTIDES, ANALOGS AND USES THEREOF” (Yissum Research Development Company of the Hebrew …, priority 2019, published 2023).

Numbered stars: 1 amine (or outer) side, 2 acyl side, 3 side chain; on linkers, the order of the positions; unused ones are H or OH. Bridge positions count the residues as written; N and C are the ends. Square brackets hold non-standard residues; d marks the D form. Ends that are not written are not given here. GlyBU(C4) = Gly building unit (N-alpha-functionalized Gly) carrying a C4 alkyl chain (n = m = 4), bridged through a urea group; CO = O=C([*:1])[*:2]

One assay relates to Lovo cancer cell-line. Nature of the assay: Wound-scratch migration assay, Lovo cell monolayers. The assay is classed as cell-based. The note with it: AYPGKF activated, 24 hr, 150 μM and 300 μM, FIG. 8D-8K. The method, then: HEK293 cells were transiently transfected with flg-Par4 followed by AYPGKF PAR4 activation in the presence and absence of PAR4c (4-4) within the range of 50 nM-150 μM. IP of cell lysates following different periods of activation was carried out using anti flg abs. Detection of Akt was performed by anti Akt abs. β-actin serves as a control gene for loading. […] Matrigel invasion before and after AYPGKF PAR4 activation and in the presence and absence of PAR4 c(4-4) inhibitor in the activated PAR4 cells. A range between 50 nM-150 μM PAR4 c(4-4) inhibitor was applied. While ample Matrigel invasion is seen following PAR4 activation, this was attenuated in the presence of the inhibitor in all the concentrations used, similar to control prior to PAR4 activation. FIG. 8C—Histograms represent quantification of the cells/HPF invaded the Matrigel layer. Unpaired Student's t test was used. This experiment is a representative of three independent experiments performed in triplicates. FIG. 8D-8K show Wound-scratch migration assay. Lovo cancer cell-line was grown to confluence. Then, an equal wound scratch was introduced to Lovo cell monolayers. Monolayers were serum starved overnight and PAR4 was activated or not with AYPGKF. One hour prior to activation PAR4 c(4-4), either at 150 μM or 300 μM concentrations was added to the monolayers.
Migration was evaluated by “wound scratch assay” applied. […]

The next assay concerns the target T1, PAR4-Akt association (Homo sapiens, UniProt P31749).
T1 construct: FLAG; expressed in transfected cells
Nature of the assay: PAR4-Akt association, immunoprecipitation in HEK293 cells transfected with flg-Par4 and AYPGKF activated. In kind it is cell-based. The conditions noted are these: HEK293 cells, 50 nM-150 μM, FIG. 8A. As for the experimental part:
Experiments shown in FIG. 3A-3C were carried out in MDA-MB-231 cells. […] Unpaired Student's t test was used. This experiment is a representative of three independent experiments performed in triplicates. […] HEK 293T cells were transfected with wt flg-Par4 followed by AYPGKF activation of PAR4. IP was performed using anti fig abs of cells treated or not with CTP4-A peptide and immunoblotting with anti-Akt abs.
FIG. 4A—PH-Akt module alone binds PAR4-C-tail but not mutant R25C. HEK 293 cells were transiently transfected with flg-Par4 construct and either with GFP-PH-Akt domain alone or GFP-R25C. IP of cell lysates following PAR4 AYPGKF activation was carried out using anti-flg abs. Detection of either Akt-PH domain alone associated with PAR4 was performed with anti-GFP. […] FIG. 4C—The PI3K inhibitor […] inhibits the binding of Akt to PAR4. Treatment of HEK 293 cells with LY294002 for various time points or not, following transient transfection with flg-Par4 and AYPGKF activation was performed. Cell lysates were immunoprecipitated with anti-flg antibodies, and anti-Akt was used to assess the association of Akt with the PAR4 C-tail. […] Amino acid residues of PAR4- and PAR2-PH binding motifs. FIG. 4E—mutations inserted into flg-Par4 generated flg-Par4MutE346A. HEK293 cells were transiently transfected with either wt flg-Par4 or flg-Par4MutE346A. IP of cell lysates following PAR4 activation was carried out using anti-flg abs. Detection of PAR4-Akt association was performed by anti Akt Abs. While association with wt Par4 is seen after 5 and 10 min AYPGKF PAR4 activation, when using flg-Par4 E346A no inhibition is seen and effective association with Akt is seen at 30 min activation. FIG. 4F—utations inserted into flg-Par4 generated flg-Par4Mut F347A and flg-Par4Mut D349A. HEK293 cells were transiently transfected with either wt flg-Par4 or flg-Par4Mut F347A or flg-Par4Mut D349A. IP of cell lysates following PAR4 activation was carried out using anti-f/g abs. Detection of PAR4-Akt association was performed by anti Akt Abs. While association with wt Par4 is seen after 5 min AYPGKF PAR4 activation, no such binding is obtained when using either flg-Par4 F347A or flg-Par4D349A.
HEK293 cells were transiently transfected with flg-Par4 followed by AYPGKF PAR4 activation in the presence and absence of PAR4c (4-4) within the range of 50 nM-150 μM. IP of cell lysates following different periods of activation was carried out using anti flg abs. Detection of Akt was performed by anti Akt abs. β-actin serves as a control gene for loading. […] Matrigel invasion before and after AYPGKF PAR4 activation and in the presence and absence of PAR4 c(4-4) inhibitor in the activated PAR4 cells. […] FIG. 8C—Histograms represent quantification of the cells/HPF invaded the Matrigel layer. […]

T1 sequence (P31749 whole entry): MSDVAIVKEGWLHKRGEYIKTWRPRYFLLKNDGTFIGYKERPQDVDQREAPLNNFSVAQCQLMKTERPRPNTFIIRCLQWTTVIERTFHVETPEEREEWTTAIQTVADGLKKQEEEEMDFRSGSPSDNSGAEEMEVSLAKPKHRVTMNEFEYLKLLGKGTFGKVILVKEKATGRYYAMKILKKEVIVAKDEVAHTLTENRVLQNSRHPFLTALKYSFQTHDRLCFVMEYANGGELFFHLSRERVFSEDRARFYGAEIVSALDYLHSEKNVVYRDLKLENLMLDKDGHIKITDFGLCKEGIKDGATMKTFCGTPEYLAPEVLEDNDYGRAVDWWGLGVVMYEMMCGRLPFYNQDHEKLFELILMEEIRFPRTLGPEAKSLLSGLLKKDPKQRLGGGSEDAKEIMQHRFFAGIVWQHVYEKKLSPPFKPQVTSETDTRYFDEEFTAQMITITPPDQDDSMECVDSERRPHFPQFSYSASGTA

Take “Pc(4-4): backbone cyclic analog of Formula I, m=n=4, ring size 30 atoms (S[GlyBU(C4)]EFRDK[GlyBU(C4)]; bridge 2-8 via CO; not fully specified; printed as SZ1EFRDKX3)”: the “inhibition of migration/proliferation (wound scratch)” value in the assay on Lovo cancer cell-line is given as “marked inhibition”; in the assay on Lovo cancer cell-line (listed as PAR4 c(4-4)) it was “inhibits”. Further, the results for the “inhibition of Akt/PKB-PAR4 association (IP)” value in the assay with PAR4-Akt association and in the assay with PAR4-Akt association (listed as PAR4 c(4-4)) were “strong inhibition” and “inhibits”, respectively.
